Results taken from patent publication EP2826473A1, “NOVEL USE OF PATCHOULOL” (Chengdu Huasun Group Inc., Ltd., priority 2012, dated 2013).
Counter-ions that a name gives are not always drawn. Like-named read-outs stand apart in the source and are kept apart here.

Columns and labels:
Assay type in all cases: cell-based
[1] = tested on: Enterococcus faecalis; assay: in vitro bacteriostatic activity, agar dilution MIC; conditions: Enterococcus faecalis, read-out: MIC
[2] = tested on: Escherichia coli E^-; assay: as above
[3] = tested on: Escherichia coli; assay: in vitro bacteriostatic activity, agar dilution MIC, quality control strain and summary; conditions: ATCC25922; Escherichia coli ATCC 25922; read-out: MIC
[4] = tested on: Streptococcus pneumoniae; assay: in vitro bacteriostatic activity, agar dilution MIC
[5] = tested on: Klebsiella pneumonia E^-; assay: as above
[6] = tested on: Staphylococcus epidermidis MSSE; assay: as above
[7] = tested on: Enterococcus faecium; assay: as above; conditions: Enterococcus faecium, read-out: MIC
[8] = tested on: Klebsiella pneumonia; assay: in vitro bacteriostatic activity, agar dilution MIC, quality control strain and summary; conditions: Klebsiella pneumoniae, ATCC700603; Klebsiella pneumonia ATCC 700603; read-out: MIC
[9] = tested on: Klebsiella pneumonia E^+; assay: in vitro bacteriostatic activity, agar dilution MIC; conditions: Klebsiella pneumoniae
[10] = tested on: Staphylococcus epidermidis MRSE; assay: as above
[11] = tested on: Staphylococcus aureus MSSA; assay: as above; conditions: Staphylococcus aureus, MSSA
[12] = tested on: Staphylococcus aureus; assay: in vitro bacteriostatic activity, agar dilution MIC, quality control strains; conditions: ATCC25923; Staphylococcus aureus ATCC 25923; read-out: MIC
[13] = tested on: Staphylococcus epidermidis ATCC 12228; assay: in vitro bacteriostatic activity, agar dilution MIC, quality control strain; conditions: Staphylococcus epidermidis, ATCC12228
[14] = tested on: Staphylococcus aureus MRSA; assay: in vitro bacteriostatic activity, agar dilution MIC; conditions: MRSA

Question: What does the source list for `C[C@H]1COc2c(N3CCN(C)CC3)c(F)cc3c(=O)c(C(=O)O)cn1c23` [levofloxacin, Levofloxacin hydrochloride]?
Answer: MIC ([1]; ATCC29212, Enterococcus faecalis ATCC 29212): 0.25 µg/mL; MIC ([1]; ATCC51299, Enterococcus faecalis (high endurance) ATCC 51299): 0.25 µg/mL; MIC ([1]; Enterococcus faecalis 12-11): 16 µg/mL; MIC ([1]; Enterococcus faecalis 12-12): 32 µg/mL; MIC ([1]; Enterococcus faecalis 12-13): 8 µg/mL; MIC ([1]; Enterococcus faecalis 12-14): 64 µg/mL; MIC ([1]; Enterococcus faecalis 12-17): 0.5 µg/mL; MIC ([1]; Enterococcus faecalis 12-18): 0.5 µg/mL; MIC ([1]; Enterococcus faecalis 12-19): 32 µg/mL; MIC ([1]; Enterococcus faecalis 12-20): 4 µg/mL; MIC ([1]; Enterococcus faecalis 12-21): 4 µg/mL; MIC ([1]; Enterococcus faecalis 12-22): 8 µg/mL; MIC ([2]; Escherichia coli E^- 10-12): 0.1 µg/mL; MIC ([2]; Escherichia coli E^- 10-18): 12.5 µg/mL; MIC [3]: < 0.006 µg/mL; MIC ([4]; ATCC49619, Streptococcus pneumonia ATCC 49619): 0.1 µg/mL; MIC ([4]; Streptococcus pneumonia 12-6): 25 µg/mL; MIC ([4]; Streptococcus pneumonia 12-7): 12.5 µg/mL; MIC ([4]; Streptococcus pneumonia 12-8): 25 µg/mL; MIC ([4]; Streptococcus pneumonia 12-9): 25 µg/mL; MIC ([4]; Streptococcus pneumonia 12-10): 12.5 µg/mL; MIC ([4]; Streptococcus pneumoniae 12-1): 12.5 µg/mL; MIC ([4]; Streptococcus pneumoniae 12-2): 25 µg/mL; MIC ([4]; Streptococcus pneumoniae 12-3): 25 µg/mL; MIC ([4]; Streptococcus pneumoniae 12-4): 25 µg/mL; MIC ([4]; Streptococcus pneumoniae 12-5): 25 µg/mL; MIC ([5]; Klebsiella pneumonia E^- 10-18): 0.025 µg/mL; MIC ([5]; Klebsiella pneumoniae, Klebsiella pneumonia E^- 10-16, read-out: MIC): 0.025 µg/mL; MIC ([6]; Staphylococcus epidermidis): 0.125 µg/mL; MIC ([6]; Staphylococcus epidermidis MSSE 12-12): 0.125 µg/mL; MIC ([6]; Staphylococcus epidermidis MSSE 12-16): 0.125 µg/mL; MIC ([6]; Staphylococcus epidermidis, Staphylococcus epidermidis MSSE 10-43, read-out: MIC): 0.1 µg/mL; MIC ([6]; Staphylococcus epidermidis, Staphylococcus epidermidis MSSE 10-44, read-out: MIC): 3.1 µg/mL; MIC ([6]; Staphylococcus epidermidis, Staphylococcus epidermidis MSSE 12-13, read-out: MIC): 0.5 µg/mL; MIC ([6]; Staphylococcus epidermidis, Staphylococcus epidermidis MSSE 12-14, read-out: MIC): 0.5 µg/mL; MIC ([6]; Staphylococcus epidermidis, Staphylococcus epidermidis MSSE 12-15, read-out: MIC): 0.5 µg/mL; MIC ([6]; Staphylococcus epidermidis, Staphylococcus epidermidis MSSE 12-17, read-out: MIC): 0.5 µg/mL; MIC ([6]; Staphylococcus epidermidis, Staphylococcus epidermidis MSSE 12-18, read-out: MIC): 1 µg/mL; MIC ([6]; Staphylococcus epidermidis, Staphylococcus epidermidis MSSE 12-19, read-out: MIC): 0.5 µg/mL; MIC ([6]; Staphylococcus epidermidis, Staphylococcus epidermidis MSSE 12-20, read-out: MIC): 1 µg/mL; MIC ([7]; ATCC33186, Enterococcus faecium ATCC 33186): 1 µg/mL; MIC ([7]; Enterococcus faecium 12-7): 32 µg/mL; MIC ([7]; Enterococcus faecium 12-8): 64 µg/mL; MIC ([7]; Enterococcus faecium 12-9): 32 µg/mL; MIC ([7]; Enterococcus faecium 12-10): 32 µg/mL; MIC ([7]; Enterococcus faecium 12-11): 32 µg/mL; MIC ([7]; Enterococcus faecium 12-12): 64 µg/mL; MIC ([7]; Enterococcus faecium 12-13): 64 µg/mL; MIC ([7]; Enterococcus faecium 12-14): 32 µg/mL; MIC ([7]; Enterococcus faecium 12-15): 32 µg/mL; MIC ([7]; Enterococcus faecium 12-16): 64 µg/mL; MIC [8]: 0.39 µg/mL; MIC ([9]; Klebsiella pneumonia E^+ 10-2): 12.5 µg/mL; MIC ([9]; Klebsiella pneumonia E^+ 10-6): 0.0125 µg/mL; MIC ([10]; Staphylococcus epidermidis MRSE 10-40, read-out: MIC): 0.1 µg/mL; MIC ([10]; Staphylococcus epidermidis MRSE 10-44, read-out: MIC): 3.1 µg/mL; MIC ([11]; Staphylococcus aureus MSSA 10-38, read-out: MIC): 0.1 µg/mL; MIC ([11]; Staphylococcus aureus MSSA 10-40, read-out: MIC): 0.1 µg/mL; MIC ([11]; Staphylococcus aureus MSSA 10-41, read-out: MIC): 0.1 µg/mL; MIC ([11]; Staphylococcus aureus MSSA 12-11): 0.125 µg/mL; MIC ([11]; Staphylococcus aureus MSSA 12-13): 0.125 µg/mL; MIC ([11]; Staphylococcus aureus MSSA 12-14): 0.125 µg/mL; MIC ([11]; Staphylococcus aureus MSSA 12-15): 0.125 µg/mL; MIC ([11]; Staphylococcus aureus MSSA 12-16, read-out: MIC): 0.06 µg/mL; MIC ([11]; Staphylococcus aureus MSSA 12-17, read-out: MIC): 0.06 µg/mL; MIC ([11]; Staphylococcus aureus MSSA 12-18): 0.125 µg/mL; MIC ([11]; Staphylococcus aureus MSSA 12-19, read-out: MIC): 0.06 µg/mL; MIC ([11]; Staphylococcus aureus MSSA 12-20): 0.125 µg/mL; MIC ([11]; Staphylococcus aureus MSSA 12-21): 0.125 µg/mL; MIC [12]: 0.1 µg/mL; MIC [13]: 0.125 µg/mL; MIC ([14]; Staphylococcus aureus MRSA 10-31, read-out: MIC): 25 µg/mL; MIC ([14]; Staphylococcus aureus MRSA 10-32, read-out: MIC): 12.5 µg/mL
